Assay results as given in the supplement of paper PMC10307832.

Assays:
Test in all cases: relative viability (nuclei count vs DMSO), 5 days (fraction); higher = more cells survive
Doxorubicin + AZD7762 = compound: COc1cccc2c1C(=O)c1c(O)c3c(c(O)c1C2=O)C[C@@](O)(C(=O)CO)C[C@@H]3O[C@H]1C[C@H](N)[C@H](O)[C@H](C)O1 [Doxorubicin] + NC(=O)Nc1cc(-c2cccc(F)c2)sc1C(=O)N[C@H]1CCCNC1 [AZD7762] (partner 0.2 µM)
Method in brief: (§1)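 After 5 days of treatment, lung cancer cells in 1536-well plates were fixed and stained in a single step (final 0.05% Triton X-100, 1% formaldehyde, 1 ug/ml Hoechst) and their nuclei counted on 4× images. Treatment had been applied by pin tool the day after seeding as one drug alone or as a fixed anchor-drug dose with five library-drug doses (not always all listed) in √10 steps. Relative viability is the nuclei count of treated wells divided by that of vehicle wells, and values are medians of duplicate plates.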

BAY61-3606 + Crizotinib = compound: COC1=C(C=C(C=C1)C2=CC3=NC=CN3C(=N2)NC4=C(C=CC=N4)C(=O)N)OC [BAY61-3606] + C[C@@H](Oc1cc(-c2cnn(C3CCNCC3)c2)cnc1N)c1c(Cl)ccc(F)c1Cl [Crizotinib] (partner 1 µM)
Method in brief: as §1

BAY61-3606 + Bortezomib = compound: COC1=C(C=C(C=C1)C2=CC3=NC=CN3C(=N2)NC4=C(C=CC=N4)C(=O)N)OC [BAY61-3606] + CC(C)C[C@H](NC(=O)[C@H](Cc1ccccc1)NC(=O)c1cnccn1)B(O)O [Bortezomib] (partner 0.002 µM)
Method in brief: as §1

Doxorubicin + Bortezomib = compound: COc1cccc2c1C(=O)c1c(O)c3c(c(O)c1C2=O)C[C@@](O)(C(=O)CO)C[C@@H]3O[C@H]1C[C@H](N)[C@H](O)[C@H](C)O1 [Doxorubicin] + CC(C)C[C@H](NC(=O)[C@H](Cc1ccccc1)NC(=O)c1cnccn1)B(O)O [Bortezomib] (partner 0.002 µM)
Method in brief: as §1

| Cell Line | relative viability (Doxorubicin + AZD7762; first compound 0.001 µM) | relative viability (Doxorubicin + AZD7762; first compound 0.003162 µM) | relative viability (Doxorubicin + AZD7762; first compound 0.01 µM) | relative viability (Doxorubicin + AZD7762; first compound 0.03162 µM) | relative viability (Doxorubicin + AZD7762; first compound 0.1 µM) | relative viability (BAY61-3606 + Crizotinib; first compound 0.02 µM) | relative viability (BAY61-3606 + Crizotinib; first compound 0.06325 µM) | relative viability (BAY61-3606 + Crizotinib; first compound 0.2 µM) | relative viability (BAY61-3606 + Crizotinib; first compound 0.6325 µM) | relative viability (BAY61-3606 + Crizotinib; first compound 2 µM) | relative viability (BAY61-3606 + Bortezomib; first compound 0.02 µM) | relative viability (BAY61-3606 + Bortezomib; first compound 0.06325 µM) | relative viability (BAY61-3606 + Bortezomib; first compound 0.2 µM) | relative viability (BAY61-3606 + Bortezomib; first compound 0.6325 µM) | relative viability (BAY61-3606 + Bortezomib; first compound 2 µM) | relative viability (Doxorubicin + Bortezomib; first compound 0.001 µM) | relative viability (Doxorubicin + Bortezomib; first compound 0.003162 µM) | relative viability (Doxorubicin + Bortezomib; first compound 0.01 µM) | relative viability (Doxorubicin + Bortezomib; first compound 0.03162 µM) | relative viability (Doxorubicin + Bortezomib; first compound 0.1 µM) |
| --- | --- | --- | --- | --- | --- | --- | --- | --- | --- | --- | --- | --- | --- | --- | --- | --- | --- | --- | --- | --- |
| LK-2 | 0.354 | 0.578 | 0.274 | 0.341 | 0.251 | 0.227 | 0.216 | 0.228 | 0.202 | 0.201 | – | – | – | – | – | – | – | – | – | – |
| NCI-H2228 | – | – | – | – | – | 0.483 | 0.405 | 0.526 | 0.378 | 0.478 | 1.32 | 1.17 | 0.916 | 1.22 | 0.567 | 0.88 | 1.05 | 0.617 | 0.254 | 0.124 |
| NCI-H460 | 0.659 | 0.635 | 0.561 | 0.177 | 0.0853 | 0.952 | 0.72 | 0.913 | 0.846 | 0.182 | 1.12 | 1.12 | 1.05 | 0.92 | 0.548 | 0.981 | 0.964 | 0.244 | 0.0223 | 0.0093 |
| NCI-H1993 | 0.856 | 0.882 | 0.708 | 0.73 | 0.579 | 0.949 | 0.87 | 0.807 | 0.827 | 0.636 | 1.08 | 1.02 | 0.976 | 1.12 | 0.848 | 1.1 | 0.945 | 1.06 | 0.634 | 0.439 |
| NCI-H2170 | 0.825 | 0.95 | 0.792 | 0.626 | 0.961 | 1.27 | 1.27 | 1.19 | 1.16 | 0.87 | – | – | – | – | – | – | – | – | – | – |
| LXF-289 | 1.04 | 1.11 | 1.09 | 1.2 | 1.06 | 0.753 | 0.82 | 0.795 | 0.821 | 0.81 | 0.985 | 1.03 | 0.992 | 1.04 | 0.99 | 1.01 | 1.02 | 0.998 | 0.996 | 0.926 |
| NCI-H2023 | – | – | – | – | – | 0.713 | 0.61 | 0.703 | 0.751 | 0.53 | 1.1 | 1.08 | 1.09 | 1.24 | 0.735 | 0.456 | 0.889 | 0.69 | 0.152 | 0.0962 |
| COR-L23 | – | – | – | – | – | 0.697 | 0.67 | 0.527 | 0.667 | 0.509 | 1.06 | 1.12 | 0.934 | 0.962 | 0.714 | 1.04 | 0.996 | 0.872 | 0.447 | 0.156 |
| NCI-H1299 | – | – | – | – | – | 0.98 | 0.961 | 1.01 | 0.992 | 0.93 | 1.08 | 1.03 | 1.02 | 1.04 | 0.991 | 1.04 | 1.03 | 1.01 | 1.07 | 0.962 |
| NCI-H1944 | 0.512 | 0.573 | 0.451 | 0.483 | 0.46 | 1.08 | 1.04 | 0.912 | 1.07 | 0.637 | – | – | – | – | – | – | – | – | – | – |
| COR-L 105 | – | – | – | – | – | 0.762 | 0.569 | 0.674 | 0.541 | 0.421 | 0.85 | 0.688 | 0.622 | 0.807 | 0.388 | 0.787 | 0.71 | 0.74 | 0.41 | 0.256 |
| NCI-H2009 | – | – | – | – | – | 1.06 | 1.12 | 1.01 | 1.08 | 0.921 | 1.07 | 1.02 | 0.961 | 1.02 | 0.83 | 0.914 | 1.1 | 0.912 | 0.572 | 0.266 |
| IA-LM | – | – | – | – | – | 1.04 | 0.865 | – | 0.987 | 0.67 | 0.912 | – | 0.917 | 0.797 | 0.68 | 0.819 | 0.877 | 0.648 | 0.404 | 0.136 |
| NCI-H1563 | – | – | – | – | – | 0.906 | 0.868 | 0.882 | 0.948 | 0.758 | 0.84 | 0.803 | 0.948 | 0.988 | 0.631 | 0.716 | 0.772 | 0.594 | 0.515 | 0.421 |
| SW 900 | – | 0.647 | 0.604 | 0.45 | 0.358 | – | – | – | – | – | – | – | – | – | – | – | – | – | – | – |
| NCI-H1650 | – | – | – | – | – | 0.936 | 1.08 | 0.866 | 1 | 0.385 | 0.24 | 0.201 | 0.183 | 0.356 | 0.201 | 0.215 | 0.185 | 0.187 | 0.185 | 0.168 |
| A549 | – | – | – | – | – | 0.758 | 0.756 | 0.712 | 0.713 | 0.406 | – | – | – | – | – | – | – | – | – | – |
| NCI-H2342 | 0.522 | 0.491 | 0.485 | 0.426 | 0.496 | – | – | – | – | – | – | – | – | – | – | – | – | – | – | – |
| NCI-H520 | – | – | – | – | – | 0.881 | 0.782 | 0.871 | 0.948 | 0.593 | 1.1 | 0.602 | 0.843 | 0.84 | 0.433 | 0.575 | 0.581 | 0.46 | 0.361 | 0.269 |
| NCI-H358 | 0.548 | 0.542 | 0.597 | 0.367 | 0.258 | 0.505 | 0.342 | 0.373 | 0.294 | 0.162 | – | – | – | – | – | – | – | – | – | – |
| NCI-H522 | 0.7 | 0.745 | 0.967 | 0.656 | 0.918 | – | – | – | – | – | – | – | – | – | – | – | – | – | – | – |
| NCI-H1395 | 0.414 | 0.435 | 0.421 | 0.347 | 0.377 | – | – | – | – | – | – | – | – | – | – | – | – | – | – | – |
| SK-MES-1 | – | – | – | – | – | 1.01 | 0.971 | 0.962 | 0.966 | 0.876 | – | – | – | – | – | – | – | – | – | – |
| SW 1573 | – | – | – | – | – | 0.802 | 0.65 | 0.745 | 0.785 | 0.588 | 1.16 | 1.18 | 0.971 | 1.02 | 0.66 | 0.98 | 1.1 | 0.817 | 0.466 | 0.339 |
| EBC-1 | – | – | – | – | – | 0.2 | 0.195 | 0.23 | 0.16 | 0.224 | 0.571 | 0.632 | 0.616 | 0.569 | 0.459 | 0.589 | 0.52 | 0.542 | 0.363 | 0.222 |
